These results are taken from patent US11464770B2, “Anticancer pharmaceutical composition” (NATIONAL CANCER CENTER, priority 2016, dated 2022).

Assay [1] deals with lung cancer cell lines (e.g. NCI-H23, NCI-H1229). The assay is described as follows: Cell based assay, cell viability (CellTiter-Glo), lung cancer cell lines. Conditions: Homo sapiens, 72 hours treatment, CellTiter-Glo. In a few lines:
(§1)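 Each commercial line was plated and allowed 24 h to settle at constant temperature. Compound exposure ran 72 h at final concentrations spanning 0 to 2 μM. Cell viability was then determined by luminescent ATP detection.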

Assay [2] concerns blood cancer cell lines (e.g. HL-60, Jurkat, Raji, Ramos, Daudi, MOLT-4). The assay is described as follows: Cell based assay, cell viability (CellTiter-Glo), blood cancer cell lines. Conditions: Homo sapiens. In a few lines: as §1
Another assay relates to brain cancer cell lines. Nature of the assay: Cell based assay, cell viability (CellTiter-Glo), brain cancer cell lines. Conditions: Homo sapiens.
In the next assay the test system is liver cancer cell lines. The assay is described as follows: Cell based assay, cell viability (CellTiter-Glo), liver cancer cell lines. The note with it: Homo sapiens, SK-HEP1; SK-HEP-1 cell line. In a few lines: as §1
[3] abbreviates: A549 cells, read-out: IC50, lung cancer cell line A549.
Where [4] appears, read: DMS 114 cells, read-out: IC50, lung cancer cell line DMS 114.
The mark [5] stands for this setting: NCI-H23 cells, read-out: IC50, lung cancer cell line NCI-H23.
The mark [6] stands for this setting: NCI-H460 cells, read-out: IC50, lung cancer cell line NCI-H460.
The mark [7] stands for this setting: NCI-H522 cells, read-out: IC50, lung cancer cell line NCI-H522.
The mark [8] stands for this setting: NCI-H1299 cells, read-out: IC50, lung cancer cell line NCI-H1299.
The mark [9] stands for this setting: NCI-H1437 cells, read-out: IC50, lung cancer cell line NCI-H1437.
[10] abbreviates: MV4-11, blood cancer cell line MV-4-11, 72 hours, read-out: IC50, MV-4-11.
Setting [11] is: blood cancer cell line Daudi, 72 hours, read-out: IC50, Daudi.
Where [12] appears, read: blood cancer cell line HL-60, 72 hours, read-out: IC50, HL-60.
Setting [13] is: blood cancer cell line Jurkat, 72 hours, read-out: IC50, Jurkat.
Setting [14] is: blood cancer cell line MOLT-4, 72 hours, read-out: IC50, MOLT-4.
The mark [15] stands for this setting: blood cancer cell line Raji, 72 hours, read-out: IC50, Raji.
Setting [16] is: blood cancer cell line Ramos (RA 1), 72 hours, read-out: IC50, Ramos (RA 1).
[17] abbreviates: blood cancer cell line U-937, 72 hours, read-out: IC50, U-937.
Setting [18] is: U138-MG, U-138 MG cell line, read-out: IC50, Brain cancer cell line U-138 MG.
Where [19] appears, read: T98G cell line, read-out: IC50, Brain cancer cell line T98G.
Where [20] appears, read: U-251 MG cell line, read-out: IC50, Brain cancer cell line U-251 MG.

Each structure is given as a SMILES string. Where two headings read alike, the source gives them in different places.

Turning to `CC(=O)c1c([S+]([O-])Cc2ccc(I)cc2)[nH]c2c(Cl)ccc(Cl)c2c1=O` (stereo not shown) [Compound 83, 3-acetyl-5,8-dichloro-2-((4-iodobenzyl)sulfinyl)quinolin-4(1H)-one], the IC50 was above 2 µM in assay [1] (setting [3]); above 2 µM in assay [1] (setting [4]); 1.75 µM in assay [1] (MRC-5 cells, read-out: IC50); 1.25 µM in assay [1] (setting [5]); 1.54 µM in assay [1] (setting [6]); above 2 µM in assay [1] (setting [7]). Further, the IC50 in assay [1] (setting [8]) is 1.45 µM; in assay [1] (setting [9]), above 10 µM; in assay [2] (setting [10]), above 2 µM; in assay [2] (setting [11]), 1.22 µM; in assay [2] (setting [12]), above 2 µM; in assay [2] (setting [13]), 1.31 µM. Also, the IC50 in assay [2] (setting [14]) was 1.25 µM; in assay [2] (setting [15]), 1.75 µM; in assay [2] (setting [16]), 1.17 µM; in assay [2] (setting [17]), above 2 µM; in the assay on brain cancer cell lines (setting [18]) it was above 2 µM; with brain cancer cell lines (setting [19]), above 2 µM. For the same compound, the IC50 in the assay with brain cancer cell lines (setting [20]) is 1.35 µM; with liver cancer cell lines, 1.51 µM.

In the case of `CC(=O)c1c([S+]([O-])Cc2cccnc2)[nH]c2c(Br)ccc(Cl)c2c1=O` (stereo not shown) [Compound 84, 3-acetyl-8-bromo-5-chloro-2-((pyridin-3-ylmethyl)sulfinyl)quinolin-4(1H)-one], the IC50 in assay [1] (setting [3]) is above 2 µM; in assay [1] (setting [4]) it was above 2 µM; in assay [1] (MRC-5 cells, read-out: IC50), 1.29 µM; in assay [1] (setting [5]) it was 0.86 µM; in assay [1] (setting [6]) it was 1.48 µM; in assay [1] (setting [7]), 1.35 µM. The IC50 in assay [1] (setting [8]) was 1.05 µM; in assay [1] (setting [9]), above 10 µM; in assay [2] (setting [10]), 0.82 µM; in assay [2] (setting [11]) it was 1.12 µM; in assay [2] (setting [12]) it was 1.48 µM; in assay [2] (setting [13]) it was 0.98 µM. Further, the IC50 is 0.97 µM in assay [2] (setting [14]); 1.5 µM in assay [2] (setting [15]); 1 µM in assay [2] (setting [16]); 1.48 µM in assay [2] (setting [17]); above 2 µM in the assay on brain cancer cell lines (setting [18]); above 10 µM in the assay with brain cancer cell lines (setting [19]). The results for the IC50 in the assay on brain cancer cell lines (setting [20]) and in the assay on liver cancer cell lines were above 2 µM and 1.07 µM, respectively.

In the case of `Cc1cc(C[S+]([O-])c2[nH]c3c(Br)ccc(Cl)c3c(=O)c2C(=O)C(C)C)no1` (stereo not shown) [Compound 95, 8-bromo-5-chloro-3-isobutyryl-2-(((5-methylisoxazol-3-yl)methyl)sulfinyl)quinolin-4(1H)-one], the IC50 in assay [1] (setting [3]) is 0.94 µM; in assay [1] (setting [4]) it was above 2 µM; in assay [1] (MRC-5 cells, read-out: IC50), 0.97 µM; in assay [1] (setting [5]), 0.72 µM; in assay [1] (setting [6]), 1.4 µM; in assay [1] (setting [7]) it was 1.01 µM. Also, the IC50 in assay [1] (setting [8]) was 1.06 µM; in assay [1] (setting [9]), below 2 µM; in assay [2] (setting [10]) it was 0.7 µM; in assay [2] (setting [11]), 0.64 µM; in assay [2] (setting [12]), 0.98 µM; in assay [2] (setting [13]) it was 0.29 µM. For the same compound, the IC50 is 1.01 µM in assay [2] (setting [14]); 1 µM in assay [2] (setting [15]); 0.52 µM in assay [2] (setting [16]); 1.06 µM in assay [2] (setting [17]); 1.01 µM in the assay on brain cancer cell lines (setting [18]); above 10 µM with brain cancer cell lines (setting [19]). Moreover, the results for the IC50 in the assay on brain cancer cell lines (setting [20]) and in the assay on liver cancer cell lines were 0.61 µM and 0.94 µM, respectively.

With `CC(=O)c1c(S(=O)(=O)Cc2ccccc2)[nH]c2c(Br)ccc(Cl)c2c1=O` [Compound 34, 3-acetyl-2-(benzylsulfonyl)-8-bromo-5-chloroquinolin-4(1H)-one], the IC50 in assay [1] (setting [3]) was above 2 µM; in assay [1] (setting [4]), above 2 µM; in assay [1] (MRC-5 cells, read-out: IC50), above 2 µM; in assay [1] (setting [5]), 1.39 µM; in assay [1] (setting [6]) it was above 2 µM; in assay [1] (setting [7]) it was above 2 µM. Also, the IC50 is 2 µM in assay [1] (setting [8]); above 10 µM in assay [1] (setting [9]); above 2 µM in assay [2] (setting [10]); above 2 µM in assay [2] (setting [11]); above 2 µM in assay [2] (setting [12]); above 2 µM in assay [2] (setting [13]). Besides, the IC50 in assay [2] (setting [14]) is above 2 µM; in assay [2] (setting [15]), above 2 µM; in assay [2] (setting [16]), above 2 µM; in assay [2] (setting [17]), above 2 µM; with brain cancer cell lines (setting [18]) it was above 2 µM; with brain cancer cell lines (setting [19]), above 10 µM. The IC50 with brain cancer cell lines (setting [20]) is above 2 µM; in the assay on liver cancer cell lines it was 1.72 µM.

As for `CC(=O)c1c([S+]([O-])Cc2ccc(C(F)(F)F)o2)[nH]c2c(Br)ccc(Cl)c2c1=O` (stereo not shown) [Compound 72, 3-acetyl-8-bromo-5-chloro-2-(((5-(trifluoromethyl)furan-2-yl)methyl)sulfinyl)quinolin-4(1H)-one], the IC50 is 1.79 µM in assay [1] (setting [3]); 1.94 µM in assay [1] (setting [4]); 0.72 µM in assay [1] (MRC-5 cells, read-out: IC50); 0.71 µM in assay [1] (setting [5]); 1.54 µM in assay [1] (setting [6]); above 2 µM in assay [1] (setting [7]). The IC50 in assay [1] (setting [8]) is 1.21 µM; in assay [1] (setting [9]) it was above 10 µM; in assay [2] (setting [10]), 1.12 µM; in assay [2] (setting [11]), 1.6 µM; in assay [2] (setting [12]) it was 1.3 µM; in assay [2] (setting [13]), 0.78 µM. The IC50 in assay [2] (setting [14]) is 1.05 µM; in assay [2] (setting [15]), 0.94 µM; in assay [2] (setting [16]), 1.37 µM; in assay [2] (setting [17]) it was 0.97 µM; with brain cancer cell lines (setting [18]), 1.18 µM; with brain cancer cell lines (setting [19]) it was above 10 µM. The results for the half-inhibitory concentration (IC50) with brain cancer cell lines (setting [20]) and in the assay on liver cancer cell lines were 1.07 µM and 0.73 µM, respectively.
